Experimental data taken from patent US8389500B2, “Fused heterocyclic compounds as ion channel modulators” (Gilead Sciences, Inc., priority 2008, dated 2013).

Biological target: T1, wild-type human cardiac sodium channel, hNav1.5 (late sodium current) (Homo sapiens, UniProt Q14524)
T1 construct: host or cells: HEK293
Assay: Late INa screening assay (PatchXpress whole cell patch clamp)
Format: cell-based
Settings: HEK293 hNav1.5, late INa generated with 10 μM Tefluthrin (some experiments 50 nM ATX II); for inhibition at 10 µM: 10 μM test compound, read-out: Late INa % blk (10 μM test cmpd); for inhibition at 1 µM: 1 μM test compound, read-out: Late INa % blk (1 μM test cmpd)
Experimental: The late sodium current (Late INa) and peak sodium current (Peak INa) assays are performed on an automated electrophysiology platform, PatchXpress 7000A (MDS Analytical Technologies, Sunnyvale, Calif.), which uses the whole cell patch clamp technique to measure currents through the cell membrane of up to 16 cells at a time. The assay uses an HEK293 (human embryonic kidney) cell line heterologously expressing the wild-type human cardiac sodium channel, hNav1.5, purchased from Millipore (Billerica, Mass.). No beta subunits were coexpressed with the Na channel alpha subunit. Cells are maintained with standard tissue culture procedures and stable channel expression is maintained with 400 μg/ml Geneticin in the culture medium. […] Experiments are carried out at 24-27° C.
For both the Late INa and Peak INa assays, series resistance compensation is set to 50% and whole-cell compensation is performed automatically. […] Currents through open sodium channels are automatically recorded and stored in the DataXpress2 database (MDS Analytical Technologies, Sunnyvale, Calif.). Analysis is performed using DataXpress2 analysis software and data are compiled in Excel.
Compound stocks are routinely made in glass vials to 10 mM in dimethyl sulfoxide (DMSO). In some cases, when compounds are not soluble in DMSO, they are made in 100% ethanol. Stocks are sonicated as necessary. The extracellular solution for screening Late INa is composed of: 140 mM NaCl, 4 mM KCl, 1.8 mM CaCl2, 0.75 mM MgCl2, and 5 mM HEPES with pH adjusted to 7.4 using NaOH. The extracellular solution for screening Peak INa is composed of: 20 mM NaCl, 120 mM N-methyl-D glucamine, 4 mM KCl, 1.8 mM CaCl2, 0.75 mM MgCl2, and 5 mM HEPES with pH adjusted to 7.4 using HCl. The intracellular solution used to perfuse the inside of the cells for both the Late INa and Peak INa assays contains: 120 mM CsF, 20 mM CsCl, 5 mM EGTA, 5 mM HEPES and pH adjusted to 7.4 with CsOH. […] The 0Na extracellular solution used at the end of each experiment for the Late INa and Peak INa assays to measure baseline current contains: 140 mM N-methyl-D-glucamine; 4 mM KCl; 1.8 mM CaCl2; 0.75 mM MgCl2; 5 mM HEPES and pH was adjusted to 7.4 with HCl.
For the Late INa assay, sodium channels are activated every 10 seconds (0.1 Hz) by depolarizing the cell membrane to −20 mV for 250 milliseconds (ms) from a holding potential of −120 mV. In response to a −20 mV voltage step, typical Nav1.5 sodium currents activate rapidly to a peak negative current and then inactivate nearly completely within […].
All compounds are tested to determine their activity in blocking the late sodium current. Late INa current is generated by adding 10 μM Tefluthrin (pyrethroid) to the extracellular solution while recording Na currents For some experiments, 50 nM ATX II (sea anemone toxin), another late Na activator, was used to generate the late component. […] After establishing the whole cell recording configuration, late INa activators are added to each well 4 times over a 16-17 minute period so that the late component of the Na current reaches a stable value. […] Measurements are made at the end of exposure to the third compound addition and values are normalized to the current level when all Na^+ is removed from the extracellular solution after two additions of ONa-ECF. Results are reported as percent block of late INa

T1 sequence (Q14524 whole entry): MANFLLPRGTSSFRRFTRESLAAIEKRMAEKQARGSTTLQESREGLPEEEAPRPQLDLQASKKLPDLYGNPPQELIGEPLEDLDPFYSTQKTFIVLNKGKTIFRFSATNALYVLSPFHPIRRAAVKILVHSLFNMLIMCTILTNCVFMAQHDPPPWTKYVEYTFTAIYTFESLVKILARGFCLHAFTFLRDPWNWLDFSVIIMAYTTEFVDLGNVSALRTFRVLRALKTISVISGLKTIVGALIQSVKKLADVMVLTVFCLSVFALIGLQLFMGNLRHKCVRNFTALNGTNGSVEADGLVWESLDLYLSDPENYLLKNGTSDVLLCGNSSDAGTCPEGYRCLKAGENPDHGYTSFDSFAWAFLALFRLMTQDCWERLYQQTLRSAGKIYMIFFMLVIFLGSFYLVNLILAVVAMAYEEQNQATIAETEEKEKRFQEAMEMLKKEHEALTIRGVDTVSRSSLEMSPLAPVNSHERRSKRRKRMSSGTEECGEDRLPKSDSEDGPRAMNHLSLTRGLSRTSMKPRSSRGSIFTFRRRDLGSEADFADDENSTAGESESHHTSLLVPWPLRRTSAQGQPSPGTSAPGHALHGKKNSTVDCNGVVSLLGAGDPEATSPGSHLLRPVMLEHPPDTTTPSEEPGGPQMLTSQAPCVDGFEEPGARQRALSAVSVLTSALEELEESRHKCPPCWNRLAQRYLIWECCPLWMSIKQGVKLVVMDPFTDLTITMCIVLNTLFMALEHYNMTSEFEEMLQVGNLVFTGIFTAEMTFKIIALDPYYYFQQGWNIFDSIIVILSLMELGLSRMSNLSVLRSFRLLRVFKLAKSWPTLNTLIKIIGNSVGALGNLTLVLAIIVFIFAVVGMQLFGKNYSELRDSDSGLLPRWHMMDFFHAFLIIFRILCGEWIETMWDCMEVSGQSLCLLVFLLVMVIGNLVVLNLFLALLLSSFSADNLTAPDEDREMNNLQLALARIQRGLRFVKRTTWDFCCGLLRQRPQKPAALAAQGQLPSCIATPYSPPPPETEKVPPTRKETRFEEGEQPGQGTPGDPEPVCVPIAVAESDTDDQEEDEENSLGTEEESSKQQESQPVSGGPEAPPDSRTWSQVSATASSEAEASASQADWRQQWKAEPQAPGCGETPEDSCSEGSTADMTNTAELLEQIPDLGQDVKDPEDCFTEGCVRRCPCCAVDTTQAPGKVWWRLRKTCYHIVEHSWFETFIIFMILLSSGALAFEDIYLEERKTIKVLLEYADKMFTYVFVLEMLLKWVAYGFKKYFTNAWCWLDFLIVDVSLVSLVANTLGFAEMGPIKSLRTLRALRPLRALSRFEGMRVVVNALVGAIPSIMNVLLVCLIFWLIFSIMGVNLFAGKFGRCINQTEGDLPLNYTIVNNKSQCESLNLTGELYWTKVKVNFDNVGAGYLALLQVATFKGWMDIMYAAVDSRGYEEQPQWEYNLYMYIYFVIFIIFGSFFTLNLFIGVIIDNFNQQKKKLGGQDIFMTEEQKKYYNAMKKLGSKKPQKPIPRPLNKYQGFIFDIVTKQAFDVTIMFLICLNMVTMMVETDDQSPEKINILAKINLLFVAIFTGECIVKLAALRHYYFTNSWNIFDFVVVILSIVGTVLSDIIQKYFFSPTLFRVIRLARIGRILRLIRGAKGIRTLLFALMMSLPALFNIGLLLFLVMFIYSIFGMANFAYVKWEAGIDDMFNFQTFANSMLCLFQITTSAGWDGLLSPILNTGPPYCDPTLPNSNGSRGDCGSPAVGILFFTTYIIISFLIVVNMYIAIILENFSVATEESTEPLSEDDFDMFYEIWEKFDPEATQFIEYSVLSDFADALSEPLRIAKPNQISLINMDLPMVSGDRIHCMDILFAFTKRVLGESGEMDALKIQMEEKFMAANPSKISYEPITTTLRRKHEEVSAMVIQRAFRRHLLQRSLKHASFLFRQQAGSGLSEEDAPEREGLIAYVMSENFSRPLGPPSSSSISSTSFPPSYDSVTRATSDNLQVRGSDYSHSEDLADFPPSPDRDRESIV

SMILES | inhibition at 10 µM | inhibition at 1 µM
O=S(=O)(Nc1ccc(-c2ccc(Oc3ccccc3)cc2)c(Cl)c1)C1CC1 [PT-048, N-(2-chloro-4′-phenoxybiphenyl-4-yl)cyclopropanesulfonamide] | 37.9% | 
COc1ccc(-c2ccc(NS(C)(=O)=O)cc2Cl)cc1 [PT-051, N-(2-chloro-4′-methoxybiphenyl-4-yl)methanesulfonamide] | 27% | 
CS(=O)(=O)Nc1ccc(-c2cccc(F)c2)c(Cl)c1 [PT-052, N-(2-chloro-3′-fluorobiphenyl-4-yl)methanesulfonamide] | 50.1% | 
CS(=O)(=O)Nc1ccc(-c2cccc(Cl)c2)c(Cl)c1 [PT-053, N-(2,3′-dichlorobiphenyl-4-yl)methanesulfonamide] | 72.2% | 29.9%
CS(=O)(=O)Nc1ccc(-c2cccc([N+](=O)[O-])c2)c(Cl)c1 [PT-054, N-(2-chloro-3′-nitrobiphenyl-4-yl)methanesulfonamide] | 41.3% | 
Cc1cc(NS(C)(=O)=O)ccc1-c1ccc(F)cc1 [PT-056, N-(4′-fluoro-2-methylbiphenyl-4-yl)methanesulfonamide] | 40.8% | 
Cc1cc(NS(C)(=O)=O)ccc1-c1ccc(F)c(F)c1 [PT-057, N-(3′,4′-difluoro-2-methylbiphenyl-4-yl)methanesulfonamide] | 35.9% | 
CS(=O)(=O)Nc1ccc(-c2ccc(Cl)c(C(F)(F)F)c2)c(Cl)c1 [PT-058, N-[2,4′-dichloro-3′-(trifluoromethyl)biphenyl-4-yl]methanesulfonamide] | 78.5% | 42.5%
CS(=O)(=O)Nc1ccc(-c2ccc(Cl)c(F)c2)c(F)c1 [PT-059, N-(4′-chloro-2,3′-difluorobiphenyl-4-yl)methanesulfonamide] | 41.3% | 
CS(=O)(=O)N(CCN1CCOCC1)c1ccc(-c2ccc(Cl)c(F)c2)c(Cl)c1 [PT-061, N-(2,4′-dichloro-3′-fluorobiphenyl-4-yl)-N-[2-(morpholin-4-yl)ethyl]methanesulfonamide] | 20.6% | 
CS(=O)(=O)N(CCN1CCCCC1)c1ccc(-c2ccc(Cl)c(F)c2)c(Cl)c1 [PT-062, N-(2,4′-dichloro-3′-fluorobiphenyl-4-yl)-N-[2-(piperidin-1-yl)ethyl]methanesulfonamide] | 74.8% | 25.7%
CN1CCN(CCN(c2ccc(-c3ccc(Cl)c(F)c3)c(Cl)c2)S(C)(=O)=O)CC1 [PT-063, N-(2,4′-dichloro-3′-fluorobiphenyl-4-yl)-N-[2-(4-methylpiperazin-1-yl)ethyl]methanesulfonamide] | 48.8% | 
CS(=O)(=O)N(Cc1nn[nH]n1)c1ccc(-c2ccc(Cl)c(F)c2)c(Cl)c1 [PT-064, N-(2,4′-dichloro-3′-fluorobiphenyl-4-yl)-N-(2H-tetrazol-5-ylmethyl)methanesulfonamide] | 30.5% | 
CS(=O)(=O)Nc1ccc(-c2cc(C(F)(F)F)cc(C(F)(F)F)c2)c(Cl)c1 [PT-065, N-[2-chloro-3′,5′-bis(trifluoromethyl)biphenyl-4-yl]methanesulfonamide] | 85.6% | 27.8%
CS(=O)(=O)N(c1ccc(-c2ccc(Oc3ccccc3)cc2)cc1Cl)C1CCC[C@@H]1O (stereo partly drawn) [PT-066, N-(3-chloro-4′-phenoxybiphenyl-4-yl)-N-[(2S)-2-hydroxycyclopentyl]methanesulfonamide] | 33.8% | 
CS(=O)(=O)Nc1ccc(-c2cccc(OC(F)(F)F)c2)c(F)c1 [PT-067, N-[2-fluoro-3′-(trifluoromethoxy)biphenyl-4-yl]methanesulfonamide] | 70.7% | 13.8%
CS(=O)(=O)Nc1ccc(-c2cc(F)cc(F)c2)c(Cl)c1 [PT-068, N-(2-chloro-3′,5′-difluorobiphenyl-4-yl)methanesulfonamide] | 42.2% | 

SMILES | inhibition at 10 µM | inhibition at 1 µM
CS(=O)(=O)Nc1ccc(-c2ccc(F)c(C(F)(F)F)c2)c(Cl)c1 [PT-069, N-[2-chloro-4′-fluoro-3′-(trifluoromethyl)biphenyl-4-yl]methanesulfonamide] | 63% | 
CS(=O)(=O)Nc1ccc(-c2cc(C(F)(F)F)ccc2F)c(Cl)c1 [PT-070, N-[2-chloro-2′-fluoro-5′-(trifluoromethyl)biphenyl-4-yl]methanesulfonamide] | 69.7% | 
CS(=O)(=O)Nc1ccc(-c2cc(F)c(F)c(F)c2)c(Cl)c1 [PT-071, N-(2-chloro-3′,4′,5′-trifluorobiphenyl-4-yl)methanesulfonamide] | 59.5% | 
O=S(=O)(Nc1ccc(-c2ccc(Oc3ccccc3)cc2)cc1)C1CC1 [PT-072, N-(4′-phenoxybiphenyl-4-yl)cyclopropanesulfonamide] | 35.6% | 
Cc1cc(N(Cc2cccnc2)S(C)(=O)=O)ccc1-c1cccc(OC(F)(F)F)c1 [PT-073, N-[2-methyl-3′-(trifluoromethoxy)biphenyl-4-yl]-N-(pyridin-3-ylmethyl)methanesulfonamide] | 64.4% | 
CS(=O)(=O)Nc1ccc(-c2ccc(Cl)c(F)c2)cc1OC(F)(F)F [PT-074, N-[4′-chloro-3′-fluoro-3-(trifluoromethoxy)biphenyl-4-yl]methanesulfonamide] | 24.2% | 
CS(=O)(=O)Nc1ccc(-c2ccc(C(F)(F)F)cc2)cc1OC(F)(F)F [PT-075, N-[3-(trifluoromethoxy)-4′-(trifluoromethyl)biphenyl-4-yl]methanesulfonamide] | 24.4% | 
CS(=O)(=O)Nc1ccc(-c2cccc(C(F)(F)F)c2)cc1OC(F)(F)F [PT-076, N-[3-(trifluoromethoxy)-3′-(trifluoromethyl)biphenyl-4-yl]methanesulfonamide] | 18.7% | 
COCCN(c1ccc(-c2ccc(Cl)c(F)c2)c(Cl)c1)S(C)(=O)=O [PT-077, N-(2,4′-dichloro-3′-fluorobiphenyl-4-yl)-N-(2-methoxyethyl)methanesulfonamide] | 27.2% | 
CS(=O)(=O)Nc1ccc(-c2ccc(OC(F)(F)F)cc2)c(F)c1 [PT-078, N-[2-fluoro-4′-(trifluoromethoxy)biphenyl-4-yl]methanesulfonamide] | 49.1% | 
CS(=O)(=O)Nc1ccc(-c2cccc(C(F)(F)F)c2)c(F)c1 [PT-079, N-[2-fluoro-3′-(trifluoromethyl)biphenyl-4-yl]methanesulfonamide] | 53.2% | 
CS(=O)(=O)Nc1ccc(-c2ccc(C(F)(F)F)cc2)c(F)c1 [PT-080, N-[2-fluoro-4′-(trifluoromethyl)biphenyl-4-yl]methanesulfonamide] | 66% | 
O=S(=O)(C1CC1)N(Cc1cccnc1)c1ccc(-c2cccc(OC(F)(F)F)c2)c(Cl)c1 [PT-081, N-[2-chloro-3′-(trifluoromethoxy)biphenyl-4-yl]-N-(pyridin-3-ylmethyl)cyclopropanesulfonamide] | 40.4% | 
CS(=O)(=O)Nc1ccc(-c2ccc(OC(F)(F)F)cc2)cc1 [PT-086, N-[4′-(trifluoromethoxy)biphenyl-4-yl]methanesulfonamide] | 9.4% | 
COc1cc(N(CC(=O)O)S(C)(=O)=O)ccc1-c1cccc(OC(F)(F)F)c1 [PT-089, N-[2-methoxy-3′-(trifluoromethoxy)biphenyl-4-yl]-N-(methylsulfonyl)glycine] | -4.1% | 
CS(=O)(=O)N(CC(=O)O)c1ccc(-c2ccc(Cl)c(F)c2)c(Cl)c1 [PT-092, N-(2,4′-dichloro-3′-fluorobiphenyl-4-yl)-N-(methylsulfonyl)glycine] | -2.4% | 
CS(=O)(=O)Nc1ccc(-c2ccc(OC(F)(F)F)cc2)c(Cl)c1 [PT-094, N-[2-chloro-4′-(trifluoromethoxy)biphenyl-4-yl]methanesulfonamide] | 5.6% | 
